Assay results taken from paper PMC12643509, “High-throughput screens identify genotype-specific therapeutics for channelopathies” (JCI Insight, 2025).
Values joined by “and” are separate entries in the source; they are usually repeats but may differ in a detail not shown here. Equal entries are not always repeated.

Tests used:
C57BL/6J mice = assay: Mouse ECG analysis (cardiac safety); assay type: in vivo; parameters: QTc / QT: unit not given here
wild-type KV11.1 = wild-type KV11.1 (Homo sapiens, UniProt Q12809)
[1] = humans; cited from earlier work
[2] = cited from earlier work
[3] = mouse, in vivo, ip, 40 mg/kg; cited from earlier work
WT Kv11.1 = WT Kv11.1 (Homo sapiens, UniProt Q12809); assay: Whole-cell patch-clamp electrophysiology, drug in bath solution, WT; assay type: cell-based; parameters: expressed in transfected cells; Activation tail currents / Steady-state currents / Time constants of activation (τ): unit not given here; conditions: for Figure 5B value per cell vs Time / Figure 4B value per cell vs Voltage (mV) / Figure 4D value per cell vs Voltage (mV): individual replicates; for peak tail currents (I-V relationship) / Steady-state currents / Activation tail currents: WT, individual cells; for peak tail currents (I-V relationship): evacetrapib 15 μmol/L in bath; for Steady-state currents / Activation tail currents: evacetrapib 15 μmol/L; for Activation tail currents: tail at –40 mV
From the text: Peak stea dy-sta te current was
Tail current was fit with a […]

[4] = mouse ECG, individual animals (Figure S5)
[5] = mouse ECG, individual animals (Figure S5), in ms (unit assumed)

Sequence of WT Kv11.1 (Q12809 whole entry): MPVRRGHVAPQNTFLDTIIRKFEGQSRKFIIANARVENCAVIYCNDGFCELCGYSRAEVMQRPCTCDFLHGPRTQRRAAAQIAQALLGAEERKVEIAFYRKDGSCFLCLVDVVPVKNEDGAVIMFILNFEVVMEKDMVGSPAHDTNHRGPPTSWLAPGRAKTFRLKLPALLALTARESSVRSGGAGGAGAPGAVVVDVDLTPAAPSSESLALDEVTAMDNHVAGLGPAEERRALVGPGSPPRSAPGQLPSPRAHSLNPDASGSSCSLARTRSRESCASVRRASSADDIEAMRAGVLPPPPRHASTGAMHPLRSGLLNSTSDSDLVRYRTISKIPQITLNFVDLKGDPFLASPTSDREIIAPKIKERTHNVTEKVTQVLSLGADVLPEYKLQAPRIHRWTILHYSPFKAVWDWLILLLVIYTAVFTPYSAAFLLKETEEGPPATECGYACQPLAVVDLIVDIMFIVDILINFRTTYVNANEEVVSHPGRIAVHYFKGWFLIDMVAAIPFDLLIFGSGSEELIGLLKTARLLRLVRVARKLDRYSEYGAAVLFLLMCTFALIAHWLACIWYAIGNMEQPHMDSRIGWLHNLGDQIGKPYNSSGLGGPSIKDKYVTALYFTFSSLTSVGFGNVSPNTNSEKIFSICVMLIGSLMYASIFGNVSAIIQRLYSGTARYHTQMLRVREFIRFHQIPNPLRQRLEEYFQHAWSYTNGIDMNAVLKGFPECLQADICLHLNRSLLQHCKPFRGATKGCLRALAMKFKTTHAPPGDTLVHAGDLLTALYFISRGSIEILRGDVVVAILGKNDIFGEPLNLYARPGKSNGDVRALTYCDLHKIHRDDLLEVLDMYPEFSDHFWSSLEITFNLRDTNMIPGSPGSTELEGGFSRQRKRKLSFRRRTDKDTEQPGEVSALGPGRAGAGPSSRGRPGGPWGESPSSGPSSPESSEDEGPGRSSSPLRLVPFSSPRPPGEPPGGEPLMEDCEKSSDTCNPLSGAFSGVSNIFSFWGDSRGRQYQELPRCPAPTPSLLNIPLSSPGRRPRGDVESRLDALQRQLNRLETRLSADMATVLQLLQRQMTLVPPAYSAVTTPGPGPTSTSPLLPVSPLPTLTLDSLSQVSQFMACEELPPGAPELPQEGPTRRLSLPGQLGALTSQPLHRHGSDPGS
Sequence of wild-type KV11.1 (Q12809 whole entry): as above

## Cc1cc(C)c2c(c1)[C@@H](N(Cc1cc(C(F)(F)F)cc(C(F)(F)F)c1)c1nnn(C)n1)CCCN2C[C@H]1CC[C@H](C(=O)O)CC1 [Evacetrapib, evacetrapib]
C57BL/6J mice; mice, 40 mg/kg intraperitoneally, 30 minutes post-drug
  ECG parameters, including the QT interval: No significant differences
C57BL/6J mice; [4]
  P duration: 13.6667 and 11.3333 and 10.6667 and 11.6667 and 9 and 13.3333 and 12.3333
  PR interval: 56.3333 and 38.3333 and 42.3333 and 46.6667 and 44.6667 and 41.6667
  QT: 31.3333 and 39.3333 and 34 and 35.3333 and 42.3333
  QTc: 30.5782 and 35.4177 and 28.9078 and 33.1412 and 36.2561 and 31.0292 and 33.811
C57BL/6J mice; [5]
  QRS: 12 and 11 and 10.6667 and 10.3333
  RR: 105 and 123.333 and 138.333 and 113.667 and 136.333 and 129.667 and 135.333
wild-type KV11.1
  inhibition of WT channels: did not inhibit WT channels
[1]
  peak plasma concentrations: 1.9 to 8.2 µM
[2]; 71 healthy patients, thorough QT study
  mean QT interval compared to placebo: did not significantly shorten the mean QT interval
[2]; at 12 hours
  shorter QT interval compared with baseline: 7 ms
[3]
  peak plasma levels: 35 µmol/L
WT Kv11.1; Time 480
  Figure 5B value per cell vs Time: -0.4681 and -0.2647 and -0.2507 and -0.1972 and -0.3239 and -0.2271
WT Kv11.1; Time 540
  Figure 5B value per cell vs Time: -0.5284 and -0.3222 and -0.285 and -0.2169 and -0.3896 and -0.2816
WT Kv11.1; Time 600
  Figure 5B value per cell vs Time: -0.588 and -0.3629 and -0.3374 and -0.2423 and -0.4551 and -0.3284
WT Kv11.1; Time 660
  Figure 5B value per cell vs Time: -0.6518 and -0.4077 and -0.3785 and -0.3017 and -0.5218 and -0.3806
WT Kv11.1; Time 720
  Figure 5B value per cell vs Time: -0.7017 and -0.4517 and -0.4377 and -0.3271 and -0.5811 and -0.4215
WT Kv11.1; Time 780
  Figure 5B value per cell vs Time: -0.7446 and -0.5087 and -0.4704 and -0.3371 and -0.6312 and -0.4754
WT Kv11.1; Time 840
  Figure 5B value per cell vs Time: -0.7775 and -0.545 and -0.522 and -0.4074 and -0.6797 and -0.5211
WT Kv11.1; Time 900
  Figure 5B value per cell vs Time: -0.7865 and -0.5874 and -0.5479 and -0.435 and -0.735 and -0.566
WT Kv11.1; Time 960
  Figure 5B value per cell vs Time: -0.833 and -0.6254 and -0.582 and -0.4724 and -0.7754 and -0.6113
WT Kv11.1; Time 1020
  Figure 5B value per cell vs Time: -0.8444 and -0.6633 and -0.6057 and -0.489 and -0.8272 and -0.6494
WT Kv11.1; Time 1080
  Figure 5B value per cell vs Time: -0.8739 and -0.6879 and -0.652 and -0.5518 and -0.8519 and -0.6869
WT Kv11.1; Time 1140
  Figure 5B value per cell vs Time: -0.894 and -0.7265 and -0.6824 and -0.5792 and -0.8903 and -0.723
WT Kv11.1; Time 1200
  Figure 5B value per cell vs Time: -0.8957 and -0.756 and -0.7067 and -0.6036 and -0.9115 and -0.75
WT Kv11.1; Time 1260
  Figure 5B value per cell vs Time: -0.9162 and -0.7845 and -0.7409 and -0.6519 and -0.9274 and -0.7716
WT Kv11.1; Time 1320
  Figure 5B value per cell vs Time: -0.9293 and -0.808 and -0.7659 and -0.6564 and -0.944 and -0.7966
WT Kv11.1; Time 1380
  Figure 5B value per cell vs Time: -0.9321 and -0.8297 and -0.7811 and -0.6653 and -0.9508 and -0.8202
WT Kv11.1; Time 1440
  Figure 5B value per cell vs Time: -0.9456 and -0.8515 and -0.7941 and -0.6916
WT Kv11.1; Voltage 0 mV
  Figure 4B value per cell vs Voltage (mV): 11.8726 and 11.4943 and 10.3496 and 10.9094 and 10.8921
WT Kv11.1; Voltage 10 mV
  Figure 4B value per cell vs Voltage (mV): 8.653 and 8.735 and 8.112 and 8.594 and 8.227
WT Kv11.1; Voltage 20 mV
  Figure 4B value per cell vs Voltage (mV): 6.045 and 6.561 and 6.2 and 6.536 and 6.09
WT Kv11.1; Voltage 30 mV
  Figure 4B value per cell vs Voltage (mV): 4.263 and 4.813 and 4.589 (2×) and 4.855
WT Kv11.1; Voltage 40 mV
  Figure 4B value per cell vs Voltage (mV): 2.999 and 3.548 and 3.503 and 3.618 and 3.396
WT Kv11.1; Voltage 50 mV
  Figure 4B value per cell vs Voltage (mV): 2.259 and 2.688 and 2.663 and 2.777 and 2.566
WT Kv11.1; Voltage 60 mV
  Figure 4B value per cell vs Voltage (mV): 1.878 and 2.068 and 2.124 and 2.21 and 2.021
WT Kv11.1; Voltage 70 mV
  Figure 4B value per cell vs Voltage (mV): 1.522 and 1.6561 and 1.697 and 1.79 and 1.58
WT Kv11.1; Voltage (mV) 0
  peak tail currents (I-V relationship): 108.731 and 68.2281 and 79.8578 and 105.108 and 89.4676 and 63.9693 and 63.3317 and 23.2206 and 38.9777 and 18.6844
  Steady-state currents: 40.4395 and 14.6593 and 23.6253 and 10.7424 and 12.2745 and 25.059 and 13.3557 and 25.8785 and 25.7792 and 48.7186 and 28.6917
  Activation tail currents: 45.6244 and 25.343 and 54.0146 and 31.4245 and 29.2272 and 68.7383 and 34.1486 and 20.8925 and 71.2996 and 102.774 and 57.7045
WT Kv11.1; Voltage (mV) 10
  peak tail currents (I-V relationship): 93.1489 and 60.1622 and 69.939 and 86.7676 and 75.6735 and 55.3784 and 40.7784 and 17.5354 and 25.5833 and 12.8315
  Steady-state currents: 32.8981 and 20.4014 and 36.7833 and 17.1944 and 20.5841 and 27.8135 and 21.9511 and 36.7956 and 27.3543 and 47.5782 and 26.4245
  Activation tail currents: 61.4581 and 36.6943 and 61.1695 and 48.7606 and 43.5182 and 102.425 and 47.3892 and 33.802 and 80.7764 and 116.916 and 59.6106
WT Kv11.1; Voltage (mV) 20
  peak tail currents (I-V relationship): 76.997 and 51.8869 and 61.5888 and 71.295 and 62.4196 and 45.36 and 26.1159 and 13.7511 and 17.275 and 9.104
  Steady-state currents: 22.6993 and 18.9152 and 37.889 and 17.2911 and 21.9338 and 23.7154 and 29.6022 and 43.1925 and 20.5026 and 37.4057 and 19.7431
  Activation tail currents: 71.9787 and 45.4439 and 63.7225 and 61.2461 and 53.0993 and 122.955 and 54.7189 and 46.6431 and 82.6403 and 123.849 and 59.1491
WT Kv11.1; Voltage (mV) 30
  peak tail currents (I-V relationship): 61.9853 and 42.564 and 49.6862 and 55.8776 and 49.9256 and 37.5621 and 17.4891 and 11.2899 and 12.2347 and 6.843
  Steady-state currents: 13.8134 and 15.2335 and 30.8124 and 15.3878 and 19.0656 and 16.8628 and 32.7435 and 42.003 and 14.0184 and 26.2752 and 15.6099
  Activation tail currents: 78.4549 and 49.9729 and 64.1927 and 68.2058 and 57.9705 and 130.879 and 57.8601 and 56.5419 and 81.1964 and 126.769 and 58.6074
WT Kv11.1; Voltage (mV) 40
  peak tail currents (I-V relationship): 49.0637 and 36.1043 and 40.7824 and 44.6525 and 42.1084 and 30.3986 and 12.7193 and 9.659 and 9.23 and 5.4472
  Steady-state currents: 8.152
  Activation tail currents: 80.9925 and 51.9387 and 63.2186 and 69.4712 and 59.5512 and 133.68 and 59.6841 and 61.1492 and 78.5713 and 128.32 and 57.9252
WT Kv11.1; Voltage (mV) -10
  peak tail currents (I-V relationship): 121.614 and 76.2939 and 89.915 and 120.029 and 102.147 and 69.7054 and 87.5927 and 30.4321 and 56.9661 and 25.473
  Steady-state currents: 39.4793 and 7.634 and 11.4994 and 5.42 and 5.3991 and 14.8809 and 6.707 and 15.12 and 14.6222 and 35.1249 and 21.6894
WT Kv11.1; Voltage (mV) -20
  peak tail currents (I-V relationship): 131.419 and 84.709 and 100.756 and 135.254 and 114.81 and 74.7542 and 102.167 and 37.4476 and 77.7339 and 32.9646
  Steady-state currents: 32.9524 and 3.6817 and 4.46 and 2.8711 and 2.362 and 6.4831 and 3.43 and 7.428 and 4.804 and 18.1098 and 9.611
  Activation tail currents: 15.0143
WT Kv11.1; Voltage (mV) -30
  peak tail currents (I-V relationship): 132.826 and 89.7021 and 107.215 and 142.287 and 124.198 and 74.8335 and 106.966 and 44.1713 and 97.481 and 39.1658
  Steady-state currents: 26.2905 and 2.297 and 2.248 and 2.097 and 1.35 and 2.687 and 2.39 and 4.071 and 1.181 and 8.895 and 2.9695
  Activation tail currents: 7.534 and 3.411 and 6.987 and 3.037 and 3.42 and 5.381 and 4.729 and 3.695 and 5.67 and 20.6644 and 10.955
WT Kv11.1; Voltage (mV) -40
  peak tail currents (I-V relationship): 123.894 and 91.9717 and 106.938 and 138.26 and 129.161 and 68.3308 and 100.665 and 47.0658 and 110.15 and 41.9127
  Steady-state currents: 22.4974 and 1.925 and 1.695 and 1.5162 and 1.5185 and 1.713 and 2.12 and 2.908 and -0.105 and 5.52 and 1.124
  Activation tail currents: 4.388 and 2.505 and 3.124 and 2.236 and 2.355 and 2.6537 and 2.736 and 2.76 and 1.5226 and 9.99 and 3.792
WT Kv11.1; Voltage (mV) -50
  peak tail currents (I-V relationship): 102.384 and 84.1154 and 96.6044 and 116.609 and 127.372 and 55.6691 and 86.621 and 46.497 and 109.939 and 41.3172
  Steady-state currents: 1.688 and 1.554 and 1.143 and 1.161 and 1.645 and 1.646 and 2.0814 and 1.85 and -0.735 and 4.1055 and 0.8628
  Activation tail currents: 3.7007 and 2.582 and 2.251 and 2.025 and 2.032 and 1.953 and 2.466 and 2.6 and 0.4988 and 7.116 and 1.746
WT Kv11.1; Voltage (mV) -60
  Activation tail currents: 4.229 and 3.296 and 2.251 and 1.856 and 2 and 1.917 and 2.331 and 2.577 and 0.3413 and 6.751 and 1.786
WT Kv11.1; Voltage -10 mV
  Figure 4B value per cell vs Voltage (mV): 14.8044 and 13.7126 and 12.9375 and 13.3319 and 13.3961
WT Kv11.1; Voltage -20 mV
  Figure 4B value per cell vs Voltage (mV): 17.0235 and 15.2047 and 14.605 and 15.0846 and 15.5938
WT Kv11.1; Voltage -30 mV
  Figure 4D value per cell vs Voltage (mV): 15.7269 and 18.6316 and 19.1074 and 18.8344 and 16.9058 and 17.0433 and 17.3545
WT Kv11.1; Voltage -40 mV
  Figure 4D value per cell vs Voltage (mV): 16.5636 and 18.432 and 19.3043 and 18.0397 and 17.6 and 17.7987 and 17.7833 and 17.6688
